Results as given in paper PMC3407089, “Influence of GABAA Receptor α Subunit Isoforms on the Benzodiazepine Binding Site” (PLoS ONE, 2012).
Where two headings read alike, the source gives them in different places.

Experiments:
α2β2γ2 receptors = biological target: T1, α2β2γ2 receptors (Rattus norvegicus, UniProt P18508+P23576); assay: Radioactive ligand binding / displacement of [^3H]Ro 15–1788
T1 construct: expressed in transfected cells; host or cells: HEK293 cells (ATCC CRL 1573), membranes
Procedure: For α5 containing receptors β2 was replaced by β1. […] Culturing of cells and membrane preparation were done as described before.
The properties of the recombinant mutant receptors were only estimated. For this affinity estimate, membranes were re-suspended in phosphate buffer using a Teflon homogenizer. […] The final protein concentration was 0.1–1 mg of protein/ml. […] Membranes were collected by rapid vacuum filtration on GF/C filters. After three washing steps (3 sec each) with 5 ml of phosphate buffer, the filter-retained radioactivity was determined by liquid scintillation counting.

[1] = system: wild type GABAA receptors; assay: Covalent reaction at the functional level (two-electrode voltage clamp, Xenopus oocytes); assay type: cell-based; conditions: all wild type receptors
Procedure: (§1) Capped cRNAs were synthesized (Ambion, Austin, TX, USA) from the linearized plasmids with a cytomegalovirus promotor (pCMVvectors) containing the different subunits, respectively. A poly-A tail of about 400 residues was added to each transcript using yeast poly- A polymerase (United States Biologicals, Cleveland, OH, USA). The concentration of the cRNA was quantified on a formaldehyde gel using Radiant Red stain (Bio-Rad) for visualization of the RNA. Known concentrations of RNA ladder (Invitrogen) were loaded as standard on the same gel. cRNAs were precipitated in ethanol/isoamylalcohol 19∶ 1, the dried pellet dissolved in water and stored at −80°C. cRNA mixtures were prepared from these stock solutions and stored at −80°C. Xenopus laevis oocytes were prepared, injected and defolliculated as described previously, [39]. They were injected with 50 nL of the cRNA solution containing wild type or mutated α1 or α2, α3, α5, α6 and wild type β2 and γ2 subunits at a concentration of 10 nM : 10 nM : 50 nM [40] and then incubated in modified Barth’s solution at +18°C for at least 24 h before the measurements.
(§2) Currents were measured using a modified two-electrode voltage clamp amplifier Oocyte clamp OC-725 (Warner Instruments) in combination with a XY-recorder (90% response time 0.1s) or digitized at 100 Hz using a PowerLab 2/20 (AD Instruments) using the computer programs Chart (ADInstruments GmbH, Spechbach, Germany). Tests with a model oocyte were performed to ensure linearity in the larger current range. The response was linear up to 15 µA.
(§3) Electrophysiological experiments were performed by using the two-electrode voltage clamp method at a holding potential of −80 mV. The perfusion medium contained 90 mM NaCl, 1 mM KCl, 1 mM MgCl2, 1 mM CaCl2, and 5 mM Na-HEPES (pH 7.4) and was applied by gravity flow 6 ml/min. The perfusion medium was applied through a glass capillary with an inner diameter of 1.35 mm, the mouth of which was placed about 0.4 mm from the surface of the oocyte. Allosteric modulation via the benzodiazepine site was measured at a GABA concentration eliciting 2–5% of the maximal GABA current amplitude. GABA was applied for 20 s alone or in combination with allosteric compound. 6 ml of the covalent reacting compound was applied to the oocyte and incubated for 3 min while stopping the flow of the perfusion medium. Modulation of GABA currents was expressed as (I(modulator + GABA)/IGABA –1) * 100%. The perfusion system was cleaned between drug applications by washing with DMSO to avoid contamination.

[2] = system: α5S209Cβ2γ2 GABAA receptor; assay: as above; assay type: cell-based; conditions: after 10 µM 3-NCS and removal of non-covalently reacted 3-NCS
Procedure: as §1, §2, §3

[3] = system: T2, α5T210Cβ2γ2 GABAA receptor; assay: as above; assay type: cell-based; conditions: after 10 µM 3-NCS and removal of non-covalently reacted 3-NCS
T2 construct: expressed in transfected cells; host or cells: Xenopus laevis oocytes (cRNA injection)
Procedure: as §1, §2, §3

[4] = biological target: wild-type α1β2γ2 receptors; design: method as in PMID 19804380; conditions: cited from earlier work

T1 sequence (P23576 29-451): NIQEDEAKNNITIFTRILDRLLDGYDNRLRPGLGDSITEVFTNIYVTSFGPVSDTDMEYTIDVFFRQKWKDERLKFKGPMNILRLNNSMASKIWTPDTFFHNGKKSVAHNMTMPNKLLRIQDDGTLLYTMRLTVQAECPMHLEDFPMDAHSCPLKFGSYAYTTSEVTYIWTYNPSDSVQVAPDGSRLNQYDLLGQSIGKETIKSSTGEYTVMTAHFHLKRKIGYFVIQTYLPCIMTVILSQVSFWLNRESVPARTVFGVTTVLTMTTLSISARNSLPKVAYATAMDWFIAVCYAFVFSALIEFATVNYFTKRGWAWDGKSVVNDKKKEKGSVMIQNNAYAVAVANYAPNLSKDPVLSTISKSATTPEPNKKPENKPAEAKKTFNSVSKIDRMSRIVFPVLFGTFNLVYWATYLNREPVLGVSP
T1 sequence (P63138 25-474 partner limits assumed): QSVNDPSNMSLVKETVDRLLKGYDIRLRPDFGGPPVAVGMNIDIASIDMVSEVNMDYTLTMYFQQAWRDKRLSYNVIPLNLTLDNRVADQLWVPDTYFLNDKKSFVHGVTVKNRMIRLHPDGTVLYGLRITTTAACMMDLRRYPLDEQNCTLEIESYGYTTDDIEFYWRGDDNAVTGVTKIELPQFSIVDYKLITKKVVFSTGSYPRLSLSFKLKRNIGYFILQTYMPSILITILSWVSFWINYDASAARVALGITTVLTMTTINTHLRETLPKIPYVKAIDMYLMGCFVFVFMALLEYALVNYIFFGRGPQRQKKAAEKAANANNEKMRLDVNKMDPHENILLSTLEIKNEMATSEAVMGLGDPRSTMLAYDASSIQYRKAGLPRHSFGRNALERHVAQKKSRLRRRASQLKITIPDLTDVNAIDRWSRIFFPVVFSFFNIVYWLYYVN
T1 sequence (P18508 39-466): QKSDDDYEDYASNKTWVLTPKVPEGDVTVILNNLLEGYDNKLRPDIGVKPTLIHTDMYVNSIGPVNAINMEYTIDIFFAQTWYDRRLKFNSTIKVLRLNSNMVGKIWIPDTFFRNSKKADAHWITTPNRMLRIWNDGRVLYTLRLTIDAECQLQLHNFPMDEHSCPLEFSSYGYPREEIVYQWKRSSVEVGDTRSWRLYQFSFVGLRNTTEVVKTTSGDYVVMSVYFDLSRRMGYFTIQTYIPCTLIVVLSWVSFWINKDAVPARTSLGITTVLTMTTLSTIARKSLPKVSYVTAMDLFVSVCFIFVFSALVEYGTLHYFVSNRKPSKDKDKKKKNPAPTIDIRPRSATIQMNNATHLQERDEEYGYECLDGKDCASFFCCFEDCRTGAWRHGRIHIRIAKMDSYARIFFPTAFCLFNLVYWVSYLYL

CN1C(=O)C(N=C=S)N=C(c2ccccc2)c2cc([N+](=O)[O-])ccc21 (stereo not drawn) [3-NCS]
Ki (α2β2γ2 receptors): 1550 ± 250 nM | Irreversible change of GABA current amplitude after 3-NCS (in words) [1]: failed to show any changes in the current amplitude | % allosteric modulation, 3-NCS [2]: 46±17% | % allosteric modulation, 3-NCS [3]: 10±5% | Ki ([4]; radioligand [^3H]Ro15–1788, read-out: Ki, displacement of [^3H]Ro15–1788): 340 ± 16 nM | Ki ([4]; radioligand [^3H]flunitrazepam, read-out: Ki, displacement of [^3H]flunitrazepam): 240 ± 55 nM
